The text below walks through data of patent publication US9238815B2 (priority 2009, dated 2016).

In data set [1] the test system is WSN-Ren virus. Format: cell-based, influenza A/WSN/33 virus.
Data set [2] concerns influenza A/WSN/33 virus. Description: Small molecule inhibition of virus growth in A549 cells, plaque assay. The format is cell-based.
The test system of the next data set is influenza virus. The format is cell-based.
Data set [3] has as its system pseudotyped lentivirus particles bearing influenza virus HA (WSN). Format: cell-based.
Data set [4] concerns influenza A/WSN/33 virus. Format: cell-based.
The subject of data set [5] is WSN-Ren virus. Format: cell-based, influenza A/WSN/33 virus. This is another data set of the same source.

Consider `CCc1cc(-c2n[nH]c(C)c2-c2ccc3c(c2)OCCO3)c(O)cc1O` [CCT018159, 4-(4-(2,3-Dihydro-1,4-benzodioxin-6-yl)-5-methyl-1H-pyrazol-3-yl)-6-ethylresorcinol], for which the WSN-Ren virus growth result in the data set with WSN-Ren virus [1] was “reduce influenza virus growth”.
As to `COc1cc2c(O)c3c(c(-c4ccc5c(c4)OCO5)c2cc1OC)C(=O)OC3` [Diphyllin], the “inhibition of influenza A/WSN/33 virus” value with influenza A/WSN/33 virus [2] (A549 cells, MOI=1, FIG. 8b) is on record as “Dose-dependent inhibition”. For the same molecule, the “influenza virus inhibitory activity in high-throughput screen” value in the data set on influenza virus was “having influenza virus inhibitory activity”. Besides, in data set [3], the influenza virus entry result is recorded as “inhibits influenza virus entry”.
Regarding `O=c1[nH]c2ccccc2c(O)c1-c1nc2ccccc2[nH]1` [FGF/VEGF Receptor Inhibitor, 4-Hydroxy-3-benzimidazol-2-ylhydroquinolin-2-one], in the data set on WSN-Ren virus [1], the WSN-Ren virus growth entry is listed as “reduce influenza virus growth”.
Regarding `COc1ccc(S(=O)(=O)N(CCO)c2ccccc2CN(C)C/C=C/c2ccc(Cl)cc2)cc1` [KN-93], the “influenza virus growth by plaque assay” value in the data set on influenza A/WSN/33 virus [2] (20 μM) is “impairs influenza virus growth”. Further, the “cell viability (ATP levels)” value in the data set on MDCK cells is “without affecting cell viability”. In addition, the “A/WSN/33 influenza viral replication (viral titers)” value in the data set with influenza A/WSN/33 virus [4] is “inhibits A/WSN/33 influenza viral replication in a dose-dependent manner”.
With `COc1cc([C@@H]2c3cc4c(cc3[C@H](O)[C@H]3COC(=O)[C@H]23)OCO4)cc(OC)c1OC` [Podophyllotoxin], the WSN-Ren virus growth entry in the data set on WSN-Ren virus [1] is “reduce influenza virus growth”.
For the molecule “HIST3H3 (guide TGAGAGGTTGCGCAACGTTCA; target site or template, no part of the molecule; target sequence, further chemistry not given here)”, in the data set with WSN-Ren virus [5], the “Avg Score 12 h” value is 0.6254, the “Avg Score 24 h” value amounted to 0.5921 and the “Avg Score 36 h” value was determined as 0.4817.
